From patent US10351915B2 (Berg LLC, priority 2009, dated 2019)

Legend:
[1] = one study with rats; cited from earlier work
SKMEL-28 cells = assay: 2-D gel electrophoresis proteomic analysis; format: cell-based
Protocol: For isolation of proteins, cells were washed three times with 5 mL of ice cold PBS at a pH of 7.4. The cells were then scraped in 3 mL of PBS, pelleted by centrifuge, and re-suspended in a lysis buffer at pH 7.4 (80 mM TRIS-HCl, 1% SDS, with protease and phosphotase inhibitors). Protein concentrations were quantified using the BCA method.
The gels were run in duplicate.
The first experimental set processed and evaluated by Western blot and 2-D gel electrophoresis was the skin cancer cell line SKMEL-28.
A comparative analysis of 943 spots across all twenty-four gels was performed, comparing the control sample against all of the treated samples. The analysis included the identification of spot changes over the time course due to increase, decrease, or post-translational modification.
The analysis found thirty-two statistically significant differential spot changes. […] The characterized peptides were searched against protein databases with Mascot and MSRAT software analysis to identify the protein (Table 2).

various cell types = assay: Minimal CoQ10 concentration and treatment time for induction of early apoptosis (Bcl-2, caspase, annexin V); format: cell-based
Protocol: CoQ10 treatment of cells was carried out as described in detail below in the Materials and Methods. Induction of apoptosis was assessed in the treated cells by monitoring indicators of early apoptosis (e.g., Bcl-2 expression, caspase activation and by using annexin V assays) as described below. From these studies, the minimal CoQ10 dosage, e.g., concentration of CoQ10 and time of treatment, required to induce apoptosis in the panel of cell lines was determined.
Cells were cultured in T-75 flasks with relevant medium supplemented with 10% Fetal Bovine Serum (FBS), 1% PSA (penicillin, streptomycin, amphotericin B) (Invitrogen and Cellgro) in a 37° C. incubator with 5% CO2 levels until 70-80% confluence was reached. To harvest cells for treatment, flasks were primed with 1 mL Trypsin, aspirated, trypsinized with an additional 3 mL, and incubated at 37° C. for […]. Cells were then neutralized with an equal volμme of media and the subsequent solution was centrifuged at […] for 8 minutes. The supernatant was aspirated and the cells were resuspended with 8.5 ml of media. A mixture of 500 ul of the resuspension and 9.5 ml of […] was read twice by a coulter counter and the appropriate number of cells to be seeded into each dish was determined. Control and concentration ranging from 0-200 μM groups were examined in triplicate. From a 500 μM CoQ-10 stock solution, serial dilutions were performed to achieve desired experimental concentration in appropriate dishes. Dishes were incubated in a 37° C. incubator with 5% CO2 levels for 0-72 hours depending on cell type and experimental protocol.
The volume of sample to load per well was determined using the raw mean concentration of protein obtained from the BCA protein assay. Approximately 30-60 μg of protein were loaded for each treatment time point. Proteins were run in triplicate on 12% Tris-HCl ready gels (Bio-Rad) or hand cast gels in 1× running buffer at 85 and 100 volts. Proteins were then transferred onto nitrocellulose paper for an hour at 100 volts, and blocked for another hour in a 5% milk solution. Membranes were placed in primary antibody (1 uL Ab:1000 uL TBST) (Cell Signaling) overnight at […] The following day, membranes were washed three times for ten minutes each with Tris-Buffered Saline Tween-20 (TBST), and secondary antibody (anti-rabbit; 1 uL Ab: 1000 uL TBST) was applied for an hour at […] Membranes were washed again three times for ten minutes with TBST and chemoluminescence using Pico or Femto substrate was completed (Pierce). Membranes were then developed at time intervals that produced the best visual results. After developing, membranes were kept in TBST at […] until Actin levels could be measured.
Cells were washed twice in PBS10X and resuspended in Binding Buffer (0.1 M HEPES, pH 7.4; 1.4 M NaCl; 25 mM CaCl2). Samples of 100 μl were added to a culture tube with 5 μl of annexin-PE dye or […]. The cells were mixed and incubated without light at room temperature for 15 minutes. After which, 400 μl of 1× Binding Buffer was added to each sample and they were subjected to analysis by flow cytometry.

## COC1=C(OC)C(=O)C(C/C=C(\C)CC/C=C(\C)CC/C=C(\C)CC/C=C(\C)CC/C=C(\C)CC/C=C(\C)CC/C=C(\C)CC/C=C(\C)CC/C=C(\C)CCC=C(C)C)=C(C)C1=O [Q10, Coenzyme Q10]
[1]
  orally-administered CoQ10 absorbed: 2-3%
SKMEL-28 cells; 3 hr, 50 uM Q10
  Expression (2D spot): down
SKMEL-28 cells; 3 hr, 100 uM Q10
  Expression (2D spot): down
SKMEL-28 cells; 6 hr, 50 uM Q10, protein EIF6
  Expression (2D spot): up
SKMEL-28 cells; 6 hr, 50 uM Q10, protein LMNB1
  Expression (2D spot): down
SKMEL-28 cells; 6 hr, 100 uM Q10, protein EIF6
  Expression (2D spot): down
SKMEL-28 cells; 6 hr, 100 uM Q10, protein VIM
  Expression (2D spot): up
SKMEL-28 cells; 12 hr, 50 uM Q10, protein LGALS1
  Expression (2D spot): down
SKMEL-28 cells; 12 hr, 50 uM Q10, protein PDCD6IP
  Expression (2D spot): up
SKMEL-28 cells; 12 hr, 100 uM Q10
  Expression (2D spot): up
SKMEL-28 cells; 24 hr, 50 uM Q10
  Expression (2D spot): down
Various cell types; BONE: Ewing's sarcoma (NCI)
  Indication of Early apoptosis (Bcl-2, annexin V, or caspase activation): Extremely
  Minimal treatment Time for induction of early apoptosis: 1 h
Various cell types; BONE: Osteosarcoma (143b)
  Indication of Early apoptosis (Bcl-2, annexin V, or caspase activation): Very Strong
  Minimal treatment Time for induction of early apoptosis: 48 h
Various cell types; BREAST: BT-20
  Indication of Early apoptosis (Bcl-2, annexin V, or caspase activation): Strong
  Minimal treatment Time for induction of early apoptosis: 48 h
Various cell types; BREAST: MCF-7
  Indication of Early apoptosis (Bcl-2, annexin V, or caspase activation): Strong
  Minimal treatment Time for induction of early apoptosis: 48 h
Various cell types; BREAST: MDA MB 468
  Indication of Early apoptosis (Bcl-2, annexin V, or caspase activation): Strong
  Minimal treatment Time for induction of early apoptosis: 48 h
Various cell types; BREAST: SkBr-3
  Indication of Early apoptosis (Bcl-2, annexin V, or caspase activation): Very Strong
  Minimal treatment Time for induction of early apoptosis: 24 h
Various cell types; BREAST: ZR-75
  Indication of Early apoptosis (Bcl-2, annexin V, or caspase activation): Slight
  Minimal treatment Time for induction of early apoptosis: 72 h
Various cell types; Heart: Aortic smooth muscle (HASMC)
  Indication of Early apoptosis (Bcl-2, annexin V, or caspase activation): None
Various cell types; LIVER: Hep3B
  Indication of Early apoptosis (Bcl-2, annexin V, or caspase activation): Very Strong
  Minimal treatment Time for induction of early apoptosis: 24 h
Various cell types; LIVER: HepG2
  Indication of Early apoptosis (Bcl-2, annexin V, or caspase activation): Very Strong
  Minimal treatment Time for induction of early apoptosis: 24 h
Various cell types; Mammary fiboblasts: 184A1 and 184B5
  Indication of Early apoptosis (Bcl-2, annexin V, or caspase activation): None
Various cell types; Melanoma (Skmel 2)
  Indication of Early apoptosis (Bcl-2, annexin V, or caspase activation): Very Strong
  Minimal treatment Time for induction of early apoptosis: 24 h
Various cell types; Melanoma (Skmel 28)
  Indication of Early apoptosis (Bcl-2, annexin V, or caspase activation): Strong
  Minimal treatment Time for induction of early apoptosis: 24 h
Various cell types; PANCREAS: PaCa2
  Indication of Early apoptosis (Bcl-2, annexin V, or caspase activation): Very Strong
  Minimal treatment Time for induction of early apoptosis: 24 h
Various cell types; PROSTATE: PC3
  Indication of Early apoptosis (Bcl-2, annexin V, or caspase activation): Very Strong
  Minimal treatment Time for induction of early apoptosis: 24 h
Various cell types; SCC, Squamous cell carcinoma
  Indication of Early apoptosis (Bcl-2, annexin V, or caspase activation): Very Strong
  Minimal treatment Time for induction of early apoptosis: 24 h
Various cell types; SKIN: Fibroblasts (nFib)
  Indication of Early apoptosis (Bcl-2, annexin V, or caspase activation): None
Various cell types; SKIN: Keratinocytes (Heka, Hekn)
  Indication of Early apoptosis (Bcl-2, annexin V, or caspase activation): None
Various cell types; SKIN: Melanocytes (Hema, LP)
  Indication of Early apoptosis (Bcl-2, annexin V, or caspase activation): None
Various cell types; normal cells, including keratinocytes and dermal fibroblasts
  effect on normal cells: increased proliferation and migration
Various cell types; oncogenic cell lines
  efficacy of Coenzyme Q10 treatment (induction of apoptosis): greater in cell types that exhibited increased oncogenicity and/or greater metastatic potential
